The subject of assay [1] is Strain AH429 (Agr-I reporter). The assay is described as follows: AIP inhibition assay, Agr-I reporter (RNAIII promoter driving GFP). In kind it is cell-based, S. aureus. The conditions noted are these: sample diluted 20-fold into AH429 culture; GFP compared to TSB control. The procedure: (§1) AIP inhibition assays. For monitoring inhibition of the Agr system, an overnight culture of the appropriate reporter strain was inoculated into TSB with chloramphenicol and grown to an optical density of 0.05 (0.25 for AH431) at 600 nm. In triplicate, 475 μl of reporter culture was aliquoted into test tubes (13×100 mm) and 25 μl of spent media or intein-generated AIP was added to each tube. As controls, separate tubes were prepared with the addition of either 25 μl of TSB or chitin elution buffer. The tubes were shaken at 250 rpm at 37° C. and assayed at the following times unless otherwise indicated: AH429, 12 hrs; AH430, 3 hrs; AH431, 4 hrs. Both cell density (optical density, 595 nm) and GFP fluorescence (excitation at 485 nm, emission at 535 nm) was measured in a Tecan GENios microtiter plate reader (Research Triangle Park, N.C.) by removing 100 μl from each tube and assaying in a microtiter plate (Corning 3606 plates). Fluorescence is reported as an average of the three samples. Control AIP samples were prepared from the appropriate S. aureus producing strains. Each strain was grown in TSB until an optical density at 600 nm of ˜2.0-2.5, the cells were pelleted, and the supernatant was filtered through a 0.2 micro syringe filter. The filtered supernatants were stored at 4° C. and used within 48 hrs.
(§2) Agr reporter strains. […]

The subject of assay [2] is Strain AH431 (Agr-III reporter). Put plainly: AIP inhibition assay, Agr-III reporter (RNAIII promoter driving GFP). In kind it is cell-based, S. aureus. Conditions: sample diluted 20-fold into AH431 culture. The procedure:
as §1, §2

The test system of assay [3] is S. aureus Agr-I (AH462) reporter strain. The assay is described as follows: AIP activation assay, Agr-I reporter. The class given is cell-based. The conditions noted are these: 50 nM iAIP, TSB with 0.2% glucose, AH462, GFP. The procedure: (§3) AIP activation assays. Overnight cultures of S. aureus reporter strains were grown in TSB and sub-cultured 1:50 into TSB+0.2% glucose supplemented with indicated AIP (final volume […] concentration 50 nM). Cultures were grown in test tubes (13×100 mm) at 37° C. shaking at 250 rpm. Cell density and fluorescence was monitored using a Tecan GENios microtiter plate reader at 4, 6, 8, and 10 hours after inoculation.
(§4) In published reports, the addition of AIP samples results in a significant increase in the RNAIII levels (Ji et al., 1997). The inventors reasoned that the S. aureus media conditions are limiting the Agr response, allowing detection of AIP activation. Glucose is a common media component, and growth on glucose is known to repress RNAIII transcription (Regassa et al., 1992). When the reporter strains were grown in TSB with 0.2% glucose, the inventors observed an approximately 70% drop in GFP expression (data not shown). The addition of AIP to the glucose treated strains restores the maximal levels of RNAIII, creating a simple test for AIP activation.

In assay [4] the test system is AH430 (Agr-II reporter). In kind it is cell-based, S. aureus. The procedure: as §1
The intein fusions were kept on resin in the presence of buffer with TCEP, a non-thiol reducing agent, added to maintain DnaB activity and keep the AIP cysteine reduced. Following incubation, the resin buffer was eluted and tested for biological activity. The bioassay is based on the observation that there are three inhibition classes among S. aureus Agr systems (FIG. 1). An S. aureus Agr-II reporter strain, AH430, has a plasmid with the RNAIII transcript promoter driving GFP expression.
Agr reporter strains. To test the iAIPs, reporter strains had to be developed for each of the Agr-I, Agr-II, and Agr-III systems. […]

For assay [5], the system named is S. aureus Agr-II (AH430) reporter strain. The assay is described as follows: AIP activation assay, Agr-II reporter. Conditions: 50 nM iAIP, TSB with 0.2% glucose, AH430, GFP. The class given is cell-based. The procedure:
as §3, §4

“Also recorded” adds a separate entry of the source. No end group written: not given here.

For “iAIP-I: intein-generated S. aureus AIP-I thiolactone peptide with an additional N-terminal methionine (MYSTCDFIM) (not fully specified (bridges); also: thiolactone, places not given here)”, the “inhibition of quorum-sensing (GFP fluorescence) in Agr-I reporter strain” value in assay [1] is “did not inhibit quorum-sensing”. Also, the “inhibition of quorum-sensing (GFP fluorescence) in Agr-III reporter strain” value in assay [2] is “inhibited”. Also, in assay [3], the “-fold activation over the TSB control, Agr-I reporter” value is 3.0 -fold. Besides, the “inhibition of quorum-sensing (GFP fluorescence) in Agr-II reporter strain” value in assay [4] (sample diluted 20-fold into AH430 culture, untreated sample) is given as “inhibited the quorum-sensing response in strain AH430 in a dose-dependent manner; also recorded: did inhibit activity”. Moreover, in assay [4] (sample treated with hydroxylamine, opening the thiolactone ring, AH430), the “Agr-II inhibition after hydroxylamine treatment of the sample” value is recorded as “neither sample inhibited the Agr response”. For the same substance, in assay [4] (sample treated with sodium hydroxide base to open the thiolactone ring, neutralized with acid, AH430), the “Agr-II inhibition after base treatment of the sample” value is “neither sample inhibited the Agr response”.
As for “iAIP-II: intein-generated S. aureus AIP-II thiolactone peptide (GVNACSSLF), N-terminal methionine completely removed (not fully specified (bridges); also: thiolactone, places not given here)”, the “-fold activation over the TSB control, Agr-II reporter” value in assay [5] was 3.8 -fold. Further, the “inhibition of quorum-sensing (GFP fluorescence) in Agr-I reporter strain” value in assay [1] is reported as “inhibited quorum-sensing”. For the same substance, in assay [2], the “inhibition of quorum-sensing (GFP fluorescence) in Agr-III reporter strain” value is recorded as “inhibited quorum-sensing”.

The values are drawn from patent US20100143972A1, “Method of Making Cyclic Polypeptides with Inteins” (priority 2006, published 2010).
